According to patent publication US10894777B2, “TG2 inhibitor piperazine compounds and uses thereof” (UNIVERSITY OF OTTAWA, priority 2016, dated 2021):

Assays:
[1] = system: TG2 fusion protein mCer-TG2-YFP; assay: Fluorescence lifetime imaging (FLIM) of TG2 conformation, HaCaT cells; format: cell-based, human; details: 5 μM
Protocol: HaCaT cells were electroporated with mCer-TG2 or […] and then treated with 0 or 5 μM of the indicated inhibitor and fluorescent lifetime was monitored. […] HaCaT cells were preloaded with fluorescein cadaverine, treated with the indicated inhibitor and then challenged with calcium ionophore, washed and assayed for FC incorporation. […] The beads were then washed, boiled in Laemmli buffer and electrophoresed for immunoblot detection of TG2. Cell equivalent quantities of total and bound samples were electrophoresed to facilitate comparison of GTP bound versus total. […] Experiments were performed as described in FIGS. 31 (F) and (G).
Fluorescence lifetime imaging. Fluorescence lifetime images were acquired using FLIM system (Alba 5 from ISS). […] Emission was observed through bandpass filter 480/35 nm (Chroma Technology) and detected by a photomultiplier H7422-40 (Hamamatsu). FLIM data were acquired using time-domain modality (SPC-830 TCSPC module from Becker and Hickl GmbH). […] To account for intensity heterogeneity within single intensity images, two to five consecutive scans were acquired and summed to build FLIM intensity image for lifetime analysis. […] FLIM data were analyzed using VistaVision Suite software (Vista v.213 from ISS). Lifetime images were generated by fitting data using single exponential intensity decay model. Intensity threshold for lifetime analysis was set of at least 3-fold above the intensity of dim cells and fitting procedure was performed for binned pixels at level of 3 (7×7 pixels). Lifetime distribution within image is represented with histogram showing pixel frequency of specific lifetime. The average lifetime values with standard deviations were calculated based on all processed pixels in lifetime image. FRET values were calculated according to the formula ET=1−(τDA/τD), where τD is the lifetime of donor (mCer-TG2) and τDA is the lifetime of donor-acceptor pair (mCer-TG2—YFP).

[2] = system: SCC-13, HaCaT, A431, TU159, HNSCC3 cells; assay: Spheroid formation, matrigel invasion and migration assays in five cell lines (Example 11); format: cell-based, human; details: FIGS. 38-42
Protocol: SCC13 cells were grown for one week as monolayer in spheroid media; cells were harvested with 0.25% trypsin and plated with 2 mL of spheroid media at 15,000 cells per well in a 6-well dish. Cells were counted on day 0 and then treated with the indicated concentration of the indicated compound. Control was 0.1% DMSO. Cells were counted using a cell counter, 2 wells per treatment on each day. Values shown are mean±SEM, n=1.
(§1) HaCaT cells were grown for one week as a monolayer in spheroid media. Cells were harvested with 0.25% trypsin and plated with 2 mL of spheroid media at 15,000 cells per well in a 6-well dish. Cells were counted on day 0 and then treated with the indicated concentration of the indicated compound. Control was 0.1% DMSO. Cells were counted using a cell counter, 2 wells per treatment on each day. Values shown are mean±SEM, n=1.
as §1, with “A431” for “HaCaT”
TU159 cells were harvested with 0.25% trypsin and plated with 2 mL of spheroid media at 40,000 cells per well in a 6 well low-attachment plate. The cells were grown as spheroids for 8 days. On day 8 the spheroids were treated with the indicated concentration of the indicated compound. Control was 0.1% DMSO. The same 2 wells per treatment were counted on each day. Values shown are mean±SEM, n=1.
as §1, with “HNSCC3” for “HaCaT”, “The same” for “Cells were counted using a cell counter,”, “treatment were counted” for “treatment”, “n=1. […]” for “n=1.”

TG2 = target: T1, TG2 (Homo sapiens, UniProt P21980); assay: In situ TG2 transamidase activity (FC incorporation), HaCaT cells; format: cell-based; design: endogenous in cells
T1 sequence (P21980 1-687): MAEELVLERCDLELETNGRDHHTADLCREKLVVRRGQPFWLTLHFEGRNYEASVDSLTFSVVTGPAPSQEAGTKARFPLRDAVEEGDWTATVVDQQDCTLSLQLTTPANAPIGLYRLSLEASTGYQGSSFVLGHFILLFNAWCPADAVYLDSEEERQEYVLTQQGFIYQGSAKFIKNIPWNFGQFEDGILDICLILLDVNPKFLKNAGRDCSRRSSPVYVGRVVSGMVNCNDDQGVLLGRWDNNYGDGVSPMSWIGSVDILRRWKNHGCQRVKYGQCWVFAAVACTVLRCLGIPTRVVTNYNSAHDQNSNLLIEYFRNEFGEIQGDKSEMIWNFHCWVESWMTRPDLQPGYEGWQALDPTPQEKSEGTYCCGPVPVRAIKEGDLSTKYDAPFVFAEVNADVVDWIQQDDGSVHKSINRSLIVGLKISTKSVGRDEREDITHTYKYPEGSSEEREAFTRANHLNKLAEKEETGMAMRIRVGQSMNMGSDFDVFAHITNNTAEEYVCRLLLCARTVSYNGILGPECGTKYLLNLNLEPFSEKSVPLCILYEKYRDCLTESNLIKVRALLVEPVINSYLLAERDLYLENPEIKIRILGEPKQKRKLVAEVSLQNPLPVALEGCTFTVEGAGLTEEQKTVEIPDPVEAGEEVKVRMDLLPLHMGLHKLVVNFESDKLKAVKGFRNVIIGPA
Protocol: HaCaT cells were electroporated with mCer-TG2 or mCer-TG2-YAP and then treated with 0 or 5 μM of the indicated inhibitor and fluorescent lifetime was monitored. […] HaCaT cells were preloaded with fluorescein cadaverine, treated with the indicated inhibitor and then challenged with calcium ionophore, washed and assayed for FC incorporation. […] HaCaT were incubated for 48 h with the indicated inhibitor and extracts were prepared and incubated with GTP-agarose beads to measure TG2 binding to GTP agarose. The beads were then washed, boiled in Laemmli buffer and electrophoresed for immunoblot detection of TG2. Cell equivalent quantities of total and bound samples were electrophoresed to facilitate comparison of GTP bound versus total. […] Experiments were performed as described in FIGS. 31 (F) and (G).
In situ TG2 transamidase activity assay. Cells (40,000) were plated in 24-well attachment dishes in spheroid media and grown until 50% confluent. FC was added in 2 ml of serum-free medium at a final concentration of 20 μM and incubated for 4 h. […] After 30 min, the wells were supplemented with 10 NM A23187, a calcium ionophore.

| Structure (SMILES) | fluorescence lifetime / TG2 structure [1] | spheroid formation, matrigel invasion and migration [2] | TG2 transamidase activity (FC incorporation) (TG2) |
| --- | --- | --- | --- |
| C=CC(=O)NCCCC[C@H](NC(=O)OCc1ccccc1)C(=O)NCCOCCOCCNS(=O)(=O)c1cccc2c(N(C)C)cccc12 [NC9] | increased fluorescence lifetime | inhibit spheroid formation, matrigel invasion and migration | suppressed TG2 transamidase activity |
| C=CC(=O)NCCCC[C@H](NC(=O)OCc1ccccc1)C(=O)N1CCN(S(=O)(=O)c2cccc3c(N(C)C)cccc23)CC1 [VA4, (S)-benzyl(6-acrylamido-1-(4-((5-(dimethylamino)naphthalen-1-yl)sulfonyl)piperazin-1-yl)-1-oxohexan-2-yl)carbamate] | increased fluorescence lifetime | inhibit spheroid formation, matrigel invasion and migration | suppressed TG2 transamidase activity |
| C=CC(=O)NCCCC[C@H](NC(=O)OCc1ccccc1)C(=O)N1CCN(C(=O)c2cc3ccc(O)cc3oc2=O)CC1 [VA5, (S)-Benzyl(6-acrylamido-1-(4-(7-hydroxy-2-oxo-2H-chromene-3-carbonyl)piperazin-1-yl)-1-oxohexan-2-yl)carbamate] | increased fluorescence lifetime | inhibit spheroid formation, matrigel invasion and migration | suppressed TG2 transamidase activity |
